Reference: patent US20250034127A1, “AUTOPHAGY INDUCING COMPOUNDS AND USES THEREOF, IN PARTICULAR FOR DISEASES OF THE CNS” (Samsara Therapeutics Inc., priority 2021, published 2025)

System: primary spinal cord lower motor neurons (MNs) from SOD1 G93A Tg rats
Test: Cellular model of Amyotrophic Lateral Sclerosis (glutamate injury)
Type: cell-based, rat
Description: Compounds 157 (particularly) preferred), 185 and 196 were selected example compounds if this invention to evaluate in this model. This model (run by Neuro-Sys SAS, France) evaluates the protective effects of test compounds on primary spinal cord lower motor neurons (MNs) from SOD1 G93A Tg rats, after a glutamate injury. The MNs are pre-treated with the test compounds for 1 hour prior to exposure to glutamate, and readouts are measured 24 hours later. This model functions as an in vitro model of Amyotrophic Lateral Sclerosis. […] Any substances which can attenuate one or more of these effects can be considered to have protective effects in the model and may be useful as a new therapeutic agent for the treatment or prevention of ALS.
Genotyping of SOD1 Tg embryos: Pregnant female rat SODIG93A (Sprague Dawley, Taconic), of 14 days of gestation were obtained fromTaconic Bioscience. On the day of the dissection (from pregnant females at 14 days of gestation), a piece of each embryo brain (˜3 mm) was placed in a 2 mL tube free DNase with a new scalpel. The DNA was extracted with the SYBR Green Extract-N-Amp tissue PCR kit (Sigma Aldrich). Briefly, 120 μL of extraction solution was put on each piece of embryo heads. Then, they were incubated for 10 min at room temperature. At the end of this incubation period, the heads were incubated for 5 min at 95° C. Immediately after this last incubation, 100 μL of neutralizing solution was added; each DNA extract was diluted at 1/40 and stored at +4° C. until use. SOD1G93A gene was determined using genomic fragment with human SOD1 primers (5′-[…]-3′ (SEQ ID NO: 1); 5′-[…]-3′ (SEQ ID NO: 2)). The SOD1 primers were diluted at 3 μM in sterile ultrapure water. Briefly, a mix for PCR was prepared with ultrapure water (4 μL per sample), primer at 3 μM (2 μL per sample) and Master Mix (10 μL per sample). In a PCR 96 wells plate, 16 μL of PCR mix was added in each well. 4 μL of each diluted DNA was added according to a plan deposit. The RT-PCR was ran using the CFX96 Biorad RT-PCR system, using the following program: Initial denaturation (95° C., 20 sec)/45 cycles (95° C., 10 sec; 65° C., 10 sec; 72° C., 30 sec)/Melt curve (95° C., 15 sec; 64° C., 1 min; 90° C., 30 sec; 60° C. 15 sec). The amplification plots and melt curves were analyzed with the Biorad software. The results for each sample were compared to negative control (ultrapure water) and to the positive control (DNA from Tg embryos).
Rat spinal cord motor neurons (MNs) were be cultured as described by Wang et al. 2013 and Boussicault et al., 2020. Briefly, pregnant female rats of 14 days gestation (Sprague Dawley; Taconic) were killed using a deep anesthesia with CO2 chamber and a cervical dislocation. Then, fetuses were removed from the uterus and immediately placed in ice-cold L15 Leibovitz medium with a 2% penicillin (10,000 U/ml) and streptomycin (10 mg/ml) solution (PS) and 1% bovine serum albumin (BSA).
Spinal cords were treated for 20 min at 37° C. with a trypsin-EDTA solution at a final concentration of 0.05% trypsin and 0.02% EDTA. The dissociation was stopped by addition of Dulbecco's modified Eagle's medium (DMEM) with 4.5 g/liter of glucose, containing DNAse I grade II (final concentration 0.5 mg/mL) and 10% fetal calf serum (FCS). Cells were mechanically dissociated by three forced passages through the tip of a 10-ml pipette. Cells were then centrifuged at 515×g for 10 min at 4° C. The supernatant was discarded, and the pellet was resuspended in a defined culture medium consisting of Neurobasal medium with a 2% solution of B27 supplement, 2 mmol/liter of L-glutamine, 2% of PS solution, and 10 ng/ml of brain-derived neurotrophic factor (BDNF). Viable cells were counted in a Neubauer cytometer, using the trypan blue exclusion test. The cells were seeded at a density of 20,000 per well in 96-well plates precoated with poly-L-lysine and will be cultured at 37° C. in an air (95%)—CO2 (5%) incubator. […]

## CCN1CCC(N(C)C(=O)c2csc(-c3cnn(-c4ccccc4)c3)n2)CC1 [Compound 196, N-(1-ethylpiperidin-4-yl)-N-methyl-2-(1-phenyl-1H-pyrazol-4-yl)-1,3-thiazole-4-carboxamide]
  effects in the in vitro model of ALS: positive effects
0.5 μM, 1 μM and 10 μM
  abnormal TDP43 accumulation in the cytoplasm resulting from glutamate injury: fully abolished
10 μM, compared to glutamate injury alone
  increase in neurite network length: 16%
1 and 10 μM, compared to glutamate injury alone
  increase in number of motor neurons: > 10%
